Source: patent publication US20220153780A1, “SALT FORMS OF S-(N, N-DIETHYLCARBAMOYL)GLUTATHIONE” (Tonix Pharma Holdings Limited, priority 2019, published 2022)
In brackets after ≈: the same amount, converted by molar mass. Read-outs that look alike come from different tables or passages of the source.

How the values were obtained:
ALDH2 = settings: Faiman et al., 2013; cited from earlier work
[1] = test system: alcohol-preferring rats (P rats); assay: 2-hour ethanol intake by adult male P rats after IP carbamathione; format: in vivo
Method: The efficacy of carbamathione in reducing ethanol intake of rats was assessed. Adult male alcohol-preferring rats (P rats) and high alcohol-drinking-1 (HAD1) rats (˜75 days of age at the start) were used in this study. These rats underwent an 8-week acquisition/acclimation period of concurrent free-choice access to 15% and 30% ethanol. Animals were initiated with 24-hour access, which was titrated down to 2 hours per day for 5 days (Monday-Friday)/week access. Ethanol access began at the beginning of the dark cycle (10:00 h) in a room maintained on a reverse dark-light cycle (10:00 h to 22:00 h lights out).
After the acquisition period, the animals underwent three weeks of testing. Four doses were tested: 0, 100, 200, and 400 mg/kg/day. Sterile isotonic (0.9% normal) saline with 0.25% Tween® 80 was used as the vehicle for all doses. Injection solutions were prepared approximately 1 hour prior to each administration.
The carbamathione solution was maintained at −20° C. until mixing the solutions each day. Adding the carboxyl-associated compound helped dissolve the carbamathione solid, which was pulverized by mortar and pestle with 50 μl Tween® 80, resulting in a pH of 3.5. […] Doses were calculated at 3 ml/kg to allow for injection volume of 1.5 ml per 500 g rat. […]
Data were analyzed by Dose, by Test Day, and 2-way mixed ANOVAs on each rat line, followed by Dunnett t-test planned comparisons.

[2] = Solubility of free carbamathione in buffer by portion-wise addition of solid; format: physicochemical; settings: thermodynamic from solid, read-out: Solubility TNX1001
Method: The solubility of free carbamathione was determined to be between 20 and 30 mg/mL, as 100 mg of free carbamathione dissolved completely in 5 mL of buffer, but a saturated solution was formed when a subsequent 50 mg aliquot of solid was added to the solution.
The solubility of free carbamathione was determined to be between 10 and 20 mg/mL, as 50 mg of free carbamathione dissolved completely in 5 mL of buffer, but a saturated solution was formed when a subsequent 50 mg aliquot of solid was added to the solution.

C57BL/6J mice = assay: Voluntary ethanol intake in chronic intermittent ethanol (CIE) exposed and air-exposed (CTL) mice, limited access drinking; format: in vivo; settings: for weekly average ethanol intake vs vehicle: nondependent (CTL) mice; for ethanol intake as percent change from vehicle group: Test cycles 5 and 7
Method: Following the established protocol, adult male C57BL/6J mice (N=96) were trained to drink ethanol in a limited access (2 hour/day) free-choice (15% v/v ethanol vs. water) drinking procedure. After four weeks, stable baseline level of intake was established, and mice were separated into two groups. One group of mice (CIE group) was exposed to chronic intermittent ethanol (CIE) vapor exposure in inhalation chambers (16 hour/days x 4 days). The remaining mice (CTL group) were treated similarly but exposed to air in inhalation chambers. After a 72 hour forced abstinence period, all mice resumed ethanol drinking in the same limited access paradigm for a 5-day test period. This pattern of weekly CIE (or air) exposure cycles with intervening weekly test drinking cycles was repeated for seven cycles following procedures previously published (Becker and Lopez, 2004; Griffin et al., 2009; Lopez and Becker, 2005).
All mice received intraperitoneal (IP) administration of saline 30 min prior to the start of daily drinking sessions during baseline and the early test cycles to acclimate the animals to the handling procedure. After the fourth ethanol intake test cycle, mice were further divided into carbamathione dose treatment conditions (N=10-12/group).
After Test 4, CIE and CTL mice were separated in dose groups for Test 5 (N=11-12/group), with the groups equated for intake during Test 4. Mice received intraperitoneal (IP) injections of carbamathione (100, 200 or 400 mg/kg) or vehicle (0.25% carboxymethyl cellulose, CMC in water) 30 min before drinking. The carbamathione IP injections were administered as a suspension. Ethanol intake during Test 5 was averaged for the week and analyzed by ANOVA, with Group (CTL, CIE) and carbamathione dose (0, 100, 200, 400 mg/kg) as between-subject factors. ANOVA indicated a significant main effect of Group [F(1,78)=53.33; p<0.0001], reflecting a higher level of ethanol intake in CIE mice compared to CTL mice (* in FIG. 4).
The efficacy of carbamathione in reducing ethanol intake in mice was next compared to the efficacy of disulfiram, an FDA approved drug used in the treatment of chronic alcoholism. The mice were exposed to a sixth cycle of CIE (or air) and evaluated for intake with the same procedure used in the previous test cycle, except that disulfiram was included as a comparator drug. Mice that received vehicle or 400 mg/kg carbamathione continued with this treatment schedule. Mice that received 100 or 200 mg/kg carbamathione were combined and randomly redistributed to receive 75 or 100 mg/kg disulfiram during the first two days and these doses were increased to 125 and 150 mg/kg disulfiram, respectively for the last three days of Test 6. Disulfiram doses were prepared with the same vehicle used for carbamathione (i.e., 0.25% CMC). Separate analyses were conducted to evaluate the effect of carbamathione and disulfiram treatment. Data presented in FIG. 5 show the weekly average intake for CIE and CTL mice that received vehicle or carbamathione. […] Data for mice that received vehicle, 75, or 100 mg/kg of disulfiram were averaged over the first two days of the week. […]
Mice were evaluated again for voluntary ethanol intake after a seventh and final CIE or air exposure cycle. During the five days of Test 7, mice that received vehicle injections from the start of the study continued to receive vehicle injections. Mice that received carbamathione and disulfiram in Test cycles 5 and 6 received vehicle injections in Test 7 to evaluate any long-lasting effect of previous treatment (drug washout evaluation). Finally, mice that received 400 mg/kg carbamathione continued treatment with a higher dose of carbamathione (600 mg/kg). Analysis of the groups that received vehicle injections during Test 7 was performed with Group (CIE, CTL) and previous treatment (vehicle, low, or high disulfiram dose) as main factors. This analysis indicated a significant main effect of Group [F(1,59)=25.36; p<0.0001]. […] (data not shown). […]

CCN(CC)C(=O)SCC(NC(=O)CCC(N)C(=O)O)C(=O)NCC(=O)O (centres unmarked) [carbamathione, S—(N,N-diethylcarbamoyl)glutathione]
inhibitory activity of ALDH2 (ALDH2): devoid of inhibitory activity
effect on 2-hour ethanol intake ([1]; IP 100, 200, 400 mg/kg, saline with 0.25% Tween 80 vehicle): modest positive effect
2 h ethanol intake, Dunnett's t-test for main effect of dose ([1]; highest dose (400 mg/kg/day IP)): significant effect
solubility ([2]; aqueous buffer, pH 4.5, 25° C.): 10 to 20 mg/mL (≈ 24.6 to 49.2 mM)
solubility ([2]; aqueous buffer, pH 6.8, 25° C.): 20 to 30 mg/mL (≈ 49.2 to 73.8 mM)
solubility ([2]; simulated gastric fluid, pH 1.2, 25° C.): 25 to 33 mg/mL (≈ 61.5 to 81.2 mM)
reduction in ethanol intake, CTL mice compared to CIE-exposed mice (C57BL/6J mice; 200, 400 and 600 mg/kg, percent change from vehicle): significantly larger reduction in ethanol intake
weekly average ethanol intake vs vehicle and 100 mg/kg (C57BL/6J mice; Test 5, 400 mg/kg IP in 0.25% CMC, 30 min before drinking, CIE and CTL mice together): significantly lower ethanol intake
weekly average ethanol intake vs vehicle (C57BL/6J mice; Test 5, 200 mg/kg IP): significantly reduced ethanol intake
weekly average ethanol intake vs vehicle (C57BL/6J mice; Test 5, 400 mg/kg IP): significantly reduced ethanol intake
weekly average ethanol intake vs vehicle, pair-wise comparison (C57BL/6J mice; Test 6, 400 mg/kg IP, p=0.07): trend for lower ethanol intake
ethanol intake vs vehicle (C57BL/6J mice; Test 7, 600 mg/kg IP, CIE and CTL groups, 600 mg/kg): significantly reduce ethanol intake
ethanol intake as percent change from vehicle group (C57BL/6J mice; CIE mice, 600 mg/kg (only the highest dose)): significant decrease in ethanol intake
ethanol intake as percent change from vehicle group (C57BL/6J mice; CTL mice, 200, 400 and 600 mg/kg): significant reduction in voluntary ethanol intake
